# Data as given in patent publication US7763596B2, “Selective glucocorticoid receptor agonists” (The University of Manchester, priority 2000, dated 2010).
# Tests used:
# GFP tagged GR = molecular target: T1, GFP tagged GR (Homo sapiens, UniProt P04150); assay: Nuclear translocation using GFP tagged GR and fluorescent microscopy; type: cell-based; conditions: COS 7 cells, 100 nM, 3 hours
# T1 construct: expressed in transfected cells; host or cells: COS 7
# T1 sequence (P04150 1-777): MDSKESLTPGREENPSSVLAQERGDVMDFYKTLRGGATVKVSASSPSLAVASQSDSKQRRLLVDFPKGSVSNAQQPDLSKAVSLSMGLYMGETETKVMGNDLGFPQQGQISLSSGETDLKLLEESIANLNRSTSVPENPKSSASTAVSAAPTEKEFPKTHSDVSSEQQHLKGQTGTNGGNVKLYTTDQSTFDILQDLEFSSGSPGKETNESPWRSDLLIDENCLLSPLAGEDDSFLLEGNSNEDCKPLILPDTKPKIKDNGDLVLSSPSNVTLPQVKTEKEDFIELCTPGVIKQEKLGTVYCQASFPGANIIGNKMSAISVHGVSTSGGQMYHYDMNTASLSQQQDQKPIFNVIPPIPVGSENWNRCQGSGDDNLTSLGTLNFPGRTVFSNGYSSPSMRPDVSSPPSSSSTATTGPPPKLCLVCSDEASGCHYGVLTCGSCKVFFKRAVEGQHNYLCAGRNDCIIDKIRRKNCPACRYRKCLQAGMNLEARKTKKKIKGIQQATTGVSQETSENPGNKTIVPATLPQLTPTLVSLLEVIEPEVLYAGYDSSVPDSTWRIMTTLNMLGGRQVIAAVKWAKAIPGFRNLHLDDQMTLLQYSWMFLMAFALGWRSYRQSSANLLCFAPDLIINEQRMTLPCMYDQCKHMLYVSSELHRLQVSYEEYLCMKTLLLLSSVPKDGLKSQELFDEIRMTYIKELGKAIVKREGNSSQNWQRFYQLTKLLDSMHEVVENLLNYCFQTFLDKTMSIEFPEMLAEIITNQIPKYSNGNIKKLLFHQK
# From the text: The un-liganded GR is present in the cytoplasm of cells in association with heat shock proteins (HSPs). The binding of an agonist ligand to the GR causes dissociation from the HSPs and translocation to the nucleus. A type I antagonist ligand can bind to the GR but cannot translocate to the nucleus. A type II antagonist ligand can bind to the GR, translocate to the nucleus and bind to DNA but cannot activate gene transcription. Therefore, the ability of a putative ligand to translocate the GR helps to determine its status as an agonist or antagonist. COS 7 cells were transfected with 5 μg of a green fluorescent protein (GFP) tagged GR expression vector. After transfection, these cells were split into 6 well plates with sterile microscope cover slips placed at the bottom of each well. The cells were allowed to recover for 18 hours and then the medium was removed, the cells were washed three times with sterile phosphate buffered saline (PBS) and new medium was added containing charcoal stripped FCS in place of normal FCS. The cells were incubated for 18 hours and then the steroids of FIGS. 1 and 2A were added to make a final concentration of 100 nM. The cells were incubated for a further 3 hours and then the medium was aspirated and the cells were fixed to the glass coverslips by adding ice cold methanol and incubating at −20° C. for 30 mins. The coverslips with the transfected cells fixed to them were mounted on slides and the cellular localisation of the GFP tagged GR was analysed by fluorescent microscopy using an Axioplan 2 microscope (Zeiss, Oberkochen, Germany) and KS300 v3.0 analysis software (Zeiss).
# [1] = molecular target: T2, progesterone receptor (PRB) (Homo sapiens, UniProt P06401); assay: Progestogen activity assay using progesterone receptor transactivation; type: cell-based; conditions: 100 nM; for PRB reporter gene activation: AH3-luc reporter, COS7
# T2 construct: expressed in transfected cells; host or cells: COS 7
# T2 sequence (P06401 1-933): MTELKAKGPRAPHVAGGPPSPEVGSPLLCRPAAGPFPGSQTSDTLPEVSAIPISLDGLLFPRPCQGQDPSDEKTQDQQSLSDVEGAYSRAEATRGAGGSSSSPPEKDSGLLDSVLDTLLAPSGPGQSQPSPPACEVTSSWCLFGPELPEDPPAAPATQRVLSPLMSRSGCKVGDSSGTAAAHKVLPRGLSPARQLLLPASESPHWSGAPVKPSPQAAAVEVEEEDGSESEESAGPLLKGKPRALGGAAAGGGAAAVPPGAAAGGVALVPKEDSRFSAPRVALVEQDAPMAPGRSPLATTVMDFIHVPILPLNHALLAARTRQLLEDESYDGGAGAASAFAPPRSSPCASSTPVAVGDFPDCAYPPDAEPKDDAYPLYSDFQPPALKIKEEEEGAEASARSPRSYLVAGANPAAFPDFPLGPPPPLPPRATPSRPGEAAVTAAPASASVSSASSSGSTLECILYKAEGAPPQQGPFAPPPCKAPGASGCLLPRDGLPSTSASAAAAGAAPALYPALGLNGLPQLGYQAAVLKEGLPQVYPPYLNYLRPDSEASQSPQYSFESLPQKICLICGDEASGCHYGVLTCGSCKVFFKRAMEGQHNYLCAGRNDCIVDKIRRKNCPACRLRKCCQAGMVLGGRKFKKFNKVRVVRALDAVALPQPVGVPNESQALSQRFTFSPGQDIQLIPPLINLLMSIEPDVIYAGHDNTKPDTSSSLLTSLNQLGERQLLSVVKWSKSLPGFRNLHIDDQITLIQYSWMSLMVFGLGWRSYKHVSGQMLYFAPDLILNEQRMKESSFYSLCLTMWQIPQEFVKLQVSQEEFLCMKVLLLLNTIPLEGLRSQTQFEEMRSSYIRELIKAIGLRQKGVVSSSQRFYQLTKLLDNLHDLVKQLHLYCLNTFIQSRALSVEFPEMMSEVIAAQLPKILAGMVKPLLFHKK
# From the text: As the GR LBD has strong homology with the PR LBD there is a chance that any of the tested steroids of FIGS. 1 and 2A that activate one of these receptors may also activate the other. The presence of illegitimate progestogen activity associated with the steroids of FIGS. 1 and 2A was examined using a transactivation assay with the PR instead of the GR.
# The PR was artificially expressed in a cell line lacking endogenous PR and a GRE “driving” a luciferase reporter gene was used to measure ligand dependent activation.
# COS7 cells were transfected with 1 μg pSEO-PRB and 3 μg AH3-Luc per 10 cm tissue culture dish. The cells were plated out in to 24 well plates after transfection and the steroids of FIGS. 1 and 2A were added immediately to generate a final concentration of 100 nM. After 18 hour incubation the cells were lysed and a luciferase assay was performed.
Structure (SMILES),nuclear translocation of the GFP tagged glucocorticoid receptor (GFP tagged GR),PRB activation relative to the activation generated by progesterone [1],PRB reporter gene activation [1]
CC1CC2C3CCC4=CC(=O)C=CC4(C)C3(F)C(O)CC2(C)C12OC(C)(C)OCC2=O (stereo not drawn) [Compound A],caused nuclear localisation,–,–
CCCCCCNC(=O)OCC(=O)C1(O)C(C)CC2C3CCC4=CC(=O)C=CC4(C)C3(F)C(O)CC21C (stereo not drawn) [Compound T],–,–,slightly increased reporter gene activation compared to that of dexamethasone
CC1CC2C3CCC4=CC(=O)C=CC4(C)C3(F)C(O)CC2(C)C1(O)C(=O)NCCC(=O)O (stereo not drawn) [Q],–,–,slightly increased reporter gene activation compared to that of dexamethasone
CCCOC(=O)C1(O)C(C)CC2C3CCC4=CC(=O)C=CC4(C)C3(F)C(O)CC21C (stereo not drawn) [R],–,–,slightly increased reporter gene activation compared to that of dexamethasone

# Second part, led by results:
nuclear translocation of the GFP tagged glucocorticoid receptor (GFP tagged GR),PRB activation relative to the activation generated by progesterone [1],Structure (SMILES),PRB reporter gene activation [1]
caused nuclear localisation,–,CC1CC2C3CCC4=CC(=O)C=CC4(C)C3(F)C(O)CC2(C)C1(O)C(=O)COC(=O)c1ccc(F)cc1 (stereo not drawn) [Compound D],–
failed to cause translocation,–,Cc1ccc(NC(=O)C2(O)C(C)CC3C4CCC5=CC(=O)C=CC5(C)C4(F)C(O)CC32C)cc1 (stereo not drawn) [Compound O],slightly increased reporter gene activation compared to that of dexamethasone
–,~40%,CC1CC2C3CCC4=CC(=O)C=CC4(C)C3(F)C(O)CC2(C)C1(O)C(=O)NCCCO (stereo not drawn) [L],slightly increased reporter gene activation compared to that of dexamethasone
